Tested on: OPN
Assay: Quantitative IHC of cerebral OPN expression in ADtg mice
Assay type: in vivo, mouse
Procedure: ADtg mice (10 months old) received subcutaneous injections of GA [also known as Cop-1 and Copaxone®; 100 μg in phosphate-buffered saline (PBS)] or PBS alone (control group) twice a week for 1 week and then once a week for 8 weeks. For evaluation of innate immune infiltration to the brain by flow cytometry, 10-month-old ADtg mice received subcutaneous injections of GA ([…] in PBS) or PBS alone twice a week for 1 week and then once a week for 3 weeks. At the end of the study, all mice were anaesthetized and then perfused with ice-cold PBS with 0.5 mM EDTA, after which their organs were collected and analyzed or fixed in 2.5% paraformaldehyde (Sigma-Aldrich), and cryoprotected with 30% sucrose for further histological analysis. CD115^+ monocytes from mice donors were isolated as previously reported (Koronyo et al., Brain: a journal of neurology 2015,138:2399-2422). […] For microscopic analysis, we used a Carl Zeiss Axio Imager Z1 fluorescence microscope equipped with ApoTome (Carl Zeiss MicroImaging, Inc.). […] The number and area (μm^2) of OPN+ cells, Iba1^+CD45^hi cells, GFAP^+ cells, Thio-S^+ amyloid-βplaques and 4G8^+ amyloid-βplaques were determined by examining four to six coronal sections per mouse at 150-μm intervals over an area covering both the hippocampal and cortical (including entorhinal and cingulate cortex) regions. […]

For glatiramer acetate [GA], which “cerebral OPN expression in comparison to PBS controls” value (quantitative IHC, symptomatic ADtg mice, 2 months treatment (FIG. 11B)) is on record?
Its value is 1.5 times.

And the “increase in total OPN expression per Aβ-plaque area” value (ratio of total OPN area to plaque area, total brain regions (FIG. 11D))?
Its value is 2.6 fold.

Reference: US11779600B2, “Methods of treating or preventing alzheimer's disease and associated conditions” (CEDARS-SINAI MEDICAL CENTER, priority 2016, dated 2023)
